# In patent US10023552B2, “Method of preparing a liquiritigenin precursor” (priority 2014, dated 2018):
# Read-outs that look alike come from different tables or passages of the source.
# Columns and labels:
# [1] = Acute toxicity test (Japan Food Analysis Center); type: in vivo; details: tested in Japan Food Analysis Center
# Description: The desired product iso-liquiritigenin were tested for acute toxicity in Japan Food Analysis Center and it was confirmed that there is no toxicity.
# [2] = system: human liver cancer cells SMMC7721; details: cited from earlier work
# [3] = system: human leukemia cells HL-60; details: cited from earlier work
# [4] = system: human lung cancer cells A549; details: cited from earlier work
# [5] = system: human poorly differentiated gastric cancer line BGC-823; details: cited from earlier work
structure (smiles),measurement,setting,value
O=C(/C=C/c1ccc(O)cc1)c1ccc(O)cc1O [iso-liquiritigenin],acute toxicity,[1],no toxicity
"COc1cccc2c1C(=O)c1c(O)c3c(c(O)c1C2=O)C[C@@](O)(C(=O)CO)C[C@@H]3O[C@H]1C[C@H](N)[C@H](O)[C@H](C)O1 [adriamycin, reference compound]",SMMC7721 Inhibition %,[2]; Conc. 1 × 10^−5 Mol/l,97.47%
same,SMMC7721 Inhibition %,[2]; Conc. 1 × 10^−6 Mol/l,58.40%
same,SMMC7721 Inhibition %,[2]; Conc. 1 × 10^−7 Mol/l,10.28%
same,HL-60 Inhibition %,[3]; Conc. 1 × 10^−5 Mol/l,99.09%
same,A549 Inhibition %,[4]; Conc. 1 × 10^−5 Mol/l,90.44%
same,A549 Inhibition %,[4]; Conc. 1 × 10^−6 Mol/l,16.42%
same,A549 Inhibition %,[4]; Conc. 1 × 10^−7 Mol/l,16.42%
same,BGC-823 Inhibition %,[5]; Conc. 1 × 10^−5 Mol/l,97.67%
same,BGC-823 Inhibition %,[5]; Conc. 1 × 10^−6 Mol/l,45.80%
same,BGC-823 Inhibition %,[5]; Conc. 1 × 10^−7 Mol/l,17.86%
"O=C1C[C@@H](c2ccc(O)cc2)Oc2cc(O)ccc21 [Liquiritigenin, liquiritigenin]",SMMC7721 Inhibition %,[2]; Conc. 1 μg/ml,23.17%
same,SMMC7721 Inhibition %,[2]; Conc. 10 μg/ml,96.08%
same,SMMC7721 Inhibition %,[2]; Conc. 100 μg/ml,98.00%
same,HL-60 Inhibition %,[3]; Conc. 1 μg/ml,50.95%
same,HL-60 Inhibition %,[3]; Conc. 10 μg/ml,64.40%
same,HL-60 Inhibition %,[3]; Conc. 100 μg/ml,99.30%
same,A549 Inhibition %,[4]; Conc. 1 μg/ml,7.76%
same,A549 Inhibition %,[4]; Conc. 10 μg/ml,35.66%
same,A549 Inhibition %,"[4]; Conc. 10 μg/ml, listed as Liquiritigenin (−)",35.06%
same,A549 Inhibition %,[4]; Conc. 100 μg/ml,93.03%
same,BGC-823 Inhibition %,[5]; Conc. 1 μg/ml,24.41%
same,BGC-823 Inhibition %,[5]; Conc. 10 μg/ml,73.76%
same,BGC-823 Inhibition %,[5]; Conc. 100 μg/ml,97.52%
